# Data: patent US12617757B2, “Compounds and modules for inhibition of pre-miR-21 and their use in treatment of certain cancers” (University of Florida Research Foundation, Incorporated, priority 2019, dated 2026)
# pKd: −log10 of the molar value. Like-named read-outs stand apart in the source and are kept apart here.
# Experiments:
# pre-miR-210 = experiment: RT-qPCR of pre-miR-210 and miR-210 in hypoxic MDA-MB-231 cells; format: cell-based, human; settings: hypoxic MDA-MB-231, RT-qPCR
# pre-miR-21 [1] = experiment: RT-qPCR of mature miR-21 and pre-miR-21 levels in MDA-MB-231 cells; format: cell-based, human; settings: for effect on mature miR-21 levels / effect on pre-miR-21 levels: MDA-MB-231, RT-qPCR
# Procedure: Cell culture compound treatment and transfection. For treatment with compounds, stocks in DMSO or water were diluted in growth media and added to cells for 24-72 h. For transfection of plasmid DNA to overexpress the miR-21 hairpin precursor in pcDNA3.1 (Addgene 21114) or pcDNA3-RNaseL (R. H. Silverman, Cleveland Clinic^24) in 24-well plates, Lipofectamine 2000 was used according to the manufacturer's protocol. After transfection, the medium was removed and replaced with growth medium containing compound prepared as described above. For transfection of a control (Santa Cruz Biotechnology: sc-37007) or RNase L targeting siRNA (Santa Cruz Biotechnology: sc-45965), Lipofectamine RNAiMAX Reagent was used for transfection of oligonucleotides, including 2′-5′ A4, according to the manufacturer's protocol.
# pre-miR-21 [2] = experiment: Cellular Chem-CLIP / C-Chem-CLIP in MDA-MB-231 cells; format: cell-based, human; settings: for enrichment of the pre-miR-21 transcript by Chem-CLIP: MDA-MB-231, RT-qPCR
# Procedure: Cellular Chem-CLIP/C-Chem-CLIP. The MDA-MB-231 cells were grown to ˜70% confluency as monolayers in 60 mm dishes. The cells were treated with Chem-CLIP compounds (8 or 9) and/or non-cross-linking competitors (1 or 2) for 48 h. Total RNA was extracted using a Quick-RNA MiniPrep Kit (Zymo Research) per the manufacturer's protocol. Approximately 20-30 μg of total RNA was then incubated with 100 μL of streptavidin-agarose beads (Sigma-Aldrich) and shaken for 1 h at room temperature. The solution was removed beads washed six times with 1×PBS. The RNA bound to beads was released, purified, and used for RT-qPCR as previously described^23. Relative fold enrichment of the measured RNA before and after pulldown was measured using equation 3 (Eq. 3): Relative Fold Enrichment=2^−(ΔC^t^before pulldown−ΔC^t^after pulldown) (Eq. 3)
# where “ΔCt before pulldown” is the difference between the Ct values for the RNA of interest and a housekeeping gene in total RNA from cells and “ΔCt after pulldown” is the difference between the Ct values for the RNA of interest and the same housekeeping gene in RNA after pulldown.
# pre-miR-21 WT RNA [3] = experiment: In vitro Chem-CLIP pulldown; format: binding
# Procedure: In vitro Chemical Cross-linking and Isolation by Pull Down (Chem-CLIP) and Competitive Chemical Cross-linking and Isolation by Pull Down (C-Chem-CLIP). RPMI growth medium was heat inactivated at 95° C. for 15 min and then cooled to room temperature. Approximately 10,000 counts of ^32P 5′-end labeled miR-21 precursor hairpin RNA (pre-miR-21 WT) was folded in growth medium at 95° C. for 1 min. After cooling to room temperature, dilutions of Chem-CLIP probes 8 or 9^23 were added and incubated at 37° C. for 18 h. Alternatively, for C-Chem-CLIP, dilutions of competing non-cross-linking parent compounds, 1 or 2, were incubated with RNA for 1 h before addition of Chem-CLIP probe compounds. Streptavidin-agarose beads (Sigma-Aldrich) were then used to pulldown RNA. Samples were then washed with 1×PBS supplemented with 0.1% (v/v) Tween-20 and bound and unbound RNA radioactivity measured using a Beckman Coulter LS6500 Liquid Scintillation Counter as previously described^23.
# pri-miR-21 RNA = experiment: In vitro Ribo-SNAP; format: biochemical; settings: dose responsive treatment
# Procedure: In vitro Ribo-SNAP. The pri-miR-21 RNA (1 μM) was folded as described above. Dilutions of cleaver compounds (Bleomycin A5 or 10) were pre-activated by the addition of 1 eq Fe^2+ and added to the folded RNA in a total volume of 20 μL. After 30 min and 60 min, an additional equivalent of Fe^2+ was added and then the reaction mixtures were incubated at 37° C. overnight. After ethanol precipitation and quantification by Nanodrop, reverse transcription was performed using SuperScript™ III Reverse Transcriptase (ThermoFisher Scientific) per the manufacturer's protocol using a 5′ ^32P-labeled forward primer (˜10,000 counts). The A, T, G and C sequencing ladders were generated by using a ratio of ddNTP/dNTP of 3:1. The RNA was digested by the addition of RNase A and RNase H and incubated at 37° C. for 30 min. Then, an equal volume of Loading Buffer (95% […], 50 mM EDTA, 0.05% (w/v) bromophenol blue, 0.05% (w/v) xylene cyanol) was added to each reaction. The final mixture was resolved on a denaturing 15% polyacrylamide gel.
# pri-miR-21 = experiment: Ribo-SNAP-Map in MDA-MB-231 cells; format: cell-based, human
# Procedure: Ribo-SNAP-Map. The MDA-MB-231 cells were grown in 100 mm dishes to ˜70% confluency and treated with cleaving compound (10) for 6 h. Total RNA was then extracted by treatment with TRIzol (ThermoFisher Scientific) and quantified by Nanodrop. Approximately 10 μg of total RNA was used for reverse transcription with a pri-miR-21 specific primer (5′-[…]-3′; 2 pmol) (SEQ ID NO: 12) using Superscript III (SSIII; Life Technologies). Approximately of 10 μg RNA with 2 pmol of gene-specific primer and 1 μL 10 mM dNTP Mix in a total volume of 13 μL was incubated at 65° C. for 5 min and then placed in ice for 5 min. Next, 4 μL 5×First-Strand Buffer, 1 μL 0.1 M DTT, 1 μL RNaseOUT and 1 μL SuperScript™ III RT were added and the mixture was incubated at 50° C. for 1 h, followed by 85° C. for 10 min. After digestion with RNase A and RNase H, the remaining cDNA was purified using RNAClean XP beads (Beckman Coulter; 1.8 volumes of beads and 3 volumes of isopropanol).
# The purified cDNA was ligated with a 3′ adapter (5′ Phosphate NNN-[…]-3′ Biotin) (SEQ ID NO: 13) by T4 RNA ligase 1 (New England BioLabs; NEB) following the manufacturer's recommended protocol (2 μL 10×T4 RNA ligase buffer, 1 μL of 1 mM ATP, 10 μL 50% PEG 8000, 5 μL cDNA, 1 μL of 20 μM ssDNA adaptor, and 1 μL of T4 RNA ligase). Then, the cDNA ligated to the adaptor was purified with RNAClean XP beads as described above. PCR amplification was performed with the ligated cDNA by using Phusion polymerase (NEB) with cycling conditions of 98° C. for 20 s, 64° C. for 20 s and 72° C. for 90 s and the following forward (5′-[…]-3′) (SEQ ID NO: 14) and reverse (5′-[…]-3′) (SEQ ID NO: 15) primers. The PCR products were separated on a denaturing 15% polyacrylamide gel and the target band was excised from the gel and ethanol precipitated. The purified DNA was ligated into a vector using NEB's PCR Cloning Kit per the manufacturer's protocol. Antibiotic-resistant colonies were selected and subjected to Sanger sequencing by Genewiz. The cleavage sites and percentage were determined by comparing the cleaver treated samples and non-treated samples.
# pre-miR-21 WT RNA [4] = experiment: In vitro Dicer processing of pre-miR-21 WT; format: biochemical
# Excerpt: (§1) In vitro Dicer processing. […] Cleavage products were resolved on a denaturing 15% polyacrylamide gel, which was imaged using a Molecular Dynamics Typhoon phosphorimager and quantified with Bio-Rad's QuantityOne software, normalizing to full length RNA.
# pre-miR-21 BP = experiment: MST binding to pre-miR-21 BP (base paired control); settings: addition of 100 μM of compound
# Procedure: (§2) Microscale Thermophoresis (MST) Binding Measurements. MST fluorescent measurements were performed on a Monolith NT.115 system (NanoTemper Technologies) using the fluorescence of a miR-21 hairpin (A+U Bulge): (5′ Cy5-[…]-3′) (SEQ ID NO: 1) or a miR-21 base paired control (5′ Cy5-[…]-3′) (SEQ ID NO: 2) which were purchased from IDT with RNase-free HPLC purification and used without further purification. The RNA (5 nM) was diluted in 1×MST Buffer (8 mM Na2HPO4, 190 mM NaCl, 1 mM EDTA, and 0.05% (v/v) Tween-20) and folded by heating at 60° C. for 5 min, and slowly cooling to room temperature. Compounds 1 and 2 were diluted in 1×MST Buffer, followed by 1:3 dilutions in 1×MST Buffer containing 5 nM RNA. […] Fluorescence measurements (Ex: 605-645 nm, Em: 680-685 nm) were performed at 10% LED and 80% MST power, with a Laser-On time of 30 s and Laser-Off time of 5 s. The data were analyzed by thermophoresis analysis and fitted by the quadratic binding equation in MST analysis software (NanoTemper Technologies). Dissociation constants were then determined by curve fitting using a single-site model. Normalized MST signal was calculated by normalizing the fluorescent signals using the MST data of 1 binding to pre-miR-21 WT with the lowest signal as 0 and the highest fluorescent signal as 1.
# pre-miR-21 WT = experiment: Microscale thermophoresis (MST) binding to pre-miR-21 WT; settings: read-out: Kd, binding of the pre-miR-21 RNA Dicer site
# Procedure: as §2
# pre-miR-21 BP RNA = experiment: In vitro Dicer processing of pre-miR-21 BP; format: biochemical
# Excerpt: as §1
compound,measurement,setting,value
CN1CCN(c2ccc3nc(-c4ccc5nc(-c6cccc(OCCCC(=O)NCCCN=[N+]=[N-])c6)[nH]c5c4)[nH]c3c2)CC1 [Compound 26],effect on mature miR-210 levels,pre-miR-210,inhibits mature miR-210 levels
same,effect on pre-miR-210,pre-miR-210,boosts levels of pre-miR-21
CCCN(CC(=O)N(CCC)CC(=O)N(CCC)CC(=O)N(CC(=O)NCCOCCOCCOCCOc1cc(C=C2SC(Nc3ccccc3)=C(C(=O)OCC)C2=O)ccc1O)Cc1cn(CCCNC(=O)CCCOc2ccc(-c3nc4cc(-c5ccc(N6CCN(C)CC6)cc5)ccc4[nH]3)cc2)nn1)C(=O)CN(Cc1cn(CCCNC(=O)CCCOc2ccc(-c3nc4cc(-c5ccc(N6CCN(C)CC6)cc5)ccc4[nH]3)cc2)nn1)C(C)=O [Compound 7],effect on mature miR-21 levels,pre-miR-21 [1],decreased miR-21 levels
same,effect on pre-miR-21 levels,pre-miR-21 [1],increased pre-miR-21 levels
same,effect on mature miR-21 levels,pre-miR-21 [1]; listed as Formula 7,did not have enhanced activity over Formula 2
CC(=O)N(CCNC(=O)CCCc1ccc(N(CCCl)CCCl)cc1)CC(=O)N(CC(=O)N(CCNC(=O)CCCCC1SCC2NC(=O)NC21)CC(N)=O)Cc1cn(CCCNC(=O)CCCOc2ccc(-c3nc4cc(-c5ccc(N6CCN(C)CC6)cc5)ccc4[nH]3)cc2)nn1 (stereo not drawn) [Compound 8],enrichment of pre-miR-21 by Chem-CLIP pulldown,"pre-miR-21 [2]; 10 μM, MDA-MB-231",~2.5 fold
same,enrichment of the pre-miR-21 transcript by Chem-CLIP,pre-miR-21 [2]; 10 μM,enrichment for the pre-miR-21 transcript
same,pulldown of 32P 5′-end labeled pre-miR-21 WT RNA,pre-miR-21 WT RNA [3],greater enrichment of the RNA compared to 9
CCCN(CC(=O)N(CCC)CC(=O)N(CCC)CC(=O)N(CC(=O)NCCCCNCCCNC(=O)c1csc(-c2csc(CCNC(=O)C(NC(=O)C(C)[C@H](O)C(C)NC(=O)C(NC(=O)c3nc(C(CC(N)=O)NC[C@H](N)C(N)=O)nc(N)c3C)[C@@H](OC3OC(CO)C(O)C(O)C3OC3OC(CO)C(O)C(OC(N)=O)C3O)c3c[nH]cn3)C(C)O)n2)n1)Cc1cn(CCCNC(=O)CCCOc2ccc(-c3nc4cc(-c5ccc(N6CCN(C)CC6)cc5)ccc4[nH]3)cc2)nn1)C(=O)CN(Cc1cn(CCCNC(=O)CCCOc2ccc(-c3nc4cc(-c5ccc(N6CCN(C)CC6)cc5)ccc4[nH]3)cc2)nn1)C(C)=O (stereo partly drawn) [Compound 10],RT stops induced in pri-miR-21,pri-miR-21 RNA,induced an RT stop at the indicated sites
same,effect on mature miR-21 levels,pre-miR-21 [1],decreases mature miR-21 levels
same,effect on pre-miR-21 levels,pre-miR-21 [1],cleaved and decreased pre-miR-21 levels
same,reads that stop at the second A (3′),pri-miR-21; 3/21 reads,14%
same,reads that stop at the third A (3′),pri-miR-21; 6/21 reads,29%
same,reads that stop at the first C (5′),pri-miR-21; 12/21 reads,57%
CN1CCN(c2ccc(-c3ccc4[nH]c(-c5ccc(OCCCC(=O)NCCCN=[N+]=[N-])cc5)nc4c3)cc2)CC1 [Compound 1],competition of Chem-CLIP enrichment (C-Chem-CLIP),"pre-miR-21 [2]; MDA-MB-231, versus probe 8",enrichment is depleted
same,inhibition of / protection from Dicer processing,pre-miR-21 WT RNA [4],Protection with compound is observed at U23 (boxes marked with arrows) and U26 and U27
same,inhibition of / protection from Dicer processing,pre-miR-21 WT RNA [4]; listed as Formula 1,inhibited in vitro Dicer processing
same,saturation of the binding isotherm,pre-miR-21 BP,No saturation of the binding isotherm was observed
same,pKd,pre-miR-21 WT,4.70
same,increase of pre-miR-21 levels,"pre-miR-21 [1]; 10 μM, MDA-MB-231",1.3 fold
same,inhibition of miR-21 production,"pre-miR-21 [1]; 10 μM, MDA-MB-231",50%
same,effect on mature miR-21 levels,pre-miR-21 [1],inhibits mature miR-21-5p biogenesis
same,effect on pre-miR-21 levels,pre-miR-21 [1],boosts levels of pre-miR-21
same,protection from Dicer processing,pre-miR-21 BP RNA,Protection with compound is observed at U26 and U27
C#CCN(CC(=O)N(CCC)CC(=O)N(CCC)CC(=O)N(CCC)CC(=O)N(CC#C)CC(=O)NCCOCCOCCOCCOc1ccc(C=C2SC(Nc3ccccc3)=C(C(=O)OCC)C2=O)cc1O)C(C)=O [Compound 6],effect on mature miR-21 levels,pre-miR-21 [1],inactive
CCOC(=O)C1=C(Nc2ccccc2)SC(=Cc2ccc(OCCOCCOCCOCCNC(=O)CCCOc3cccc(-c4nc5ccc(-c6nc7cc(N8CCN(C)CC8)ccc7[nH]6)cc5[nH]4)c3)c(O)c2)C1=O [Compound 25],effect on pre-miR-210,pre-miR-210,Cleavage of pre-miR-210
"C#CCN(CC(=O)N(CCNC(=O)CCCCC1SCC2NC(=O)NC21)CC(N)=O)C(=O)CN(CCNC(=O)CCCc1ccc(N(CCCl)CCCl)cc1)C(C)=O (stereo not drawn) [Compound 9, reference compound]",enrichment of the pre-miR-21 transcript by Chem-CLIP,pre-miR-21 [2]; 10 μM,no enrichment
